Assay results from patent US10398785B2, “Pharmaceutical compositions containing taxane-cyclodextrin complexes, method of making and methods of use” (MERIDIAN LAB, priority 2015, dated 2019).

Experiment: Accelerated aging stability study at 40° C. for eleven days (impurities by HPLC, USP35)
Type: physicochemical
Conditions: in the liquid pharmaceutical composition throughout 11 days of accelerated aging at 40° C.
Procedure: A liquid pharmaceutical composition as described above, comprising ˜10 mg/mL docetaxel was diluted and subjected to accelerated aging at 40° C. for eleven days. The levels of impurities as specified by USP35 (United States Pharmacopeia 35) for taxane compositions were analyzed by HPLC at regular intervals. Stability was tested at 6 hours on day 0. Impurity levels in the liquid pharmaceutical compositions were compared to the allowable level according to the USP35 standard.

Concentration of docetaxel: 9.52 mg/mL
Structure (SMILES): CC(=O)O[C@@]12CO[C@@H]1C[C@H](O)[C@@]1(C)C(=O)[C@H](O)C3=C(C)[C@@H](OC(=O)[C@H](O)[C@@H](NC(=O)OC(C)(C)C)c4ccccc4)C[C@@](O)([C@@H](OC(=O)c4ccccc4)[C@H]21)C3(C)C [docetaxel]
